Entries after “also recorded” stand apart in the source; their conditions may differ.
Tests used:
[1] = tested on: FGF-5-dependent cell proliferation (FR-BaF3 cells expressing FGFR-1c); assay: FR-Ba/F3 cell proliferation/viability assay in the presence of FGF-5 (CCK-8); assay type: cell-based, murine; details: for FGF-5-inhibitory activity (in words): judged from FR-BaF3 result; for Suppression of FGF-5-dependent cell proliferation and viability: FR-BaF3 cells, in words (FIGS. 1(a)-1(h)); for FGF-5 Specificity IL-1/FGF-5: ratio of the IC50 with IL-3 to the IC50 with FGF-5, BR: less reproducible
Procedure: Ba/F3 is a murine interleukin-3 (IL-3)-dependent pro-B cell line. […] That is, compounds were tested for their ability to modulate proliferation of FR-Ba/F3 cells in the presence of recombinant human FGF-5 (rhFGF-5) prepared according to Maeda et al., Nishi Nihon Hifuka, 69(1): 81-86, 2007.
Briefly, a suitable plasmid expressing FGFR-1c was introduced into […] ER-Ba/F3 cells, and the cells were maintained in RPMI RPMI-1640 with 10% FBS and 1.3×10^−17 M of murine IL-3 (Sigma, St Louis, […].) containing antibiotic G418 sulfate (Promega, Medison, Wis.). The inventors compared proliferation of FR/BaF3 cells in culture medium containing IL3 or FGF-5 and a different concentration in the range from 0.005% (w/v) to 1.0% (w/v) of each test compound listed in Example 1. The FR-BaF3 cells were seeded at 5×10^4/mL cells per well in 96-well, micro-culture plates (Falcon) in RPMI-1640 culture medium containing 10% fetal bovine serum, 5 μg/mL heparin. Recombinant human FGF-5 (rhFGF-5; 1 μg/mL) was added to one group, and IL-3 (0.2 ng/mL) (Sigma) was added to another group. The test compounds were then introduced to the micro-culture plate wells. Total volume of media per well was 100 μl. Control groups lacking test compound were also prepared for each of the IL-3-supplemented and FGF-5-supplemented samples. The plates were then incubated at 37° C. in 5% CO2 for 3 days.
After 3 days, colorimetric assays were performed using a Cell Counting Kit-8 (CCK-8) (Wako) according to the manufacturer's instructions to measure cell proliferation or suppression thereof by the test compound at varying concentrations. Briefly, 10 μl (1:2 dilution) of the CCK-8 reagent was added to each micro-culture plate well after which time the plates were incubated at […] for 3 hours. Absorbance at 450 nm was then measured using a microplate reader. Cell viability and proliferation for the IL-3-supplemented and FGF-5-supplemented groups was calculated as a measure of the optical density (OD) of cells treated with a test compound relative to the OD of the respective untreated controls, excluding the OD of blank controls (media only). Dose response curves were plotted and the respective inhibitory concentrations (IC50) for the test compounds were determined.

[2] = tested on: Alkaline Phosphatase (ALP) activity in dermal papilla (DP) cells treated with FGF-5; assay: Dermal papilla alkaline phosphatase (DP-ALP) cell assay; assay type: cell-based, human; details: for relative ALP activity of DP cells treated FGF-5: 0.005-0.5 mg/ml, GSK3 inhibitor IX + rhFGF-5 1 μg/mL, 3 days, absorbance 490 nm; for FGF-5-inhibitory activity ranked from most active to least active by DP-ALP assay: rank order
Procedure: Dermal papilla cells were prepared according to the methods described in WO2013/105417, Briefly, hairs were pulled from the scalp of a healthy subject showing normal non-alopecia hair growth using tweezers. Hair follicles with dermal papilla were thus obtained at a rate of approximately one for every 100 hairs pulled. The hair follicles with dermal papilla were separated from the hair using tweezers and transferred into a saline for inspection under a microscope. Under a microscope, each dermal papilla was isolated from a respective hair follicle using tweezers and a scalpel. Approximately 2000 isolated dermal papilla cells were then transferred to a 35 mm cell culture dish together 1-2 ml of cell culture medium, after which time the cells were cultured at 37° C. to produce a primary cell culture of dermal papilla. The cell culture medium consisted of approximately 90% DMEM medium, 10% fetal bovine serum (final concentration: 10%), FGF2 (final, concentration: 10 ng/ml), and penicillin-streptornycin solution (final concentration: 1 μg/ml) for every 2 mL of medium. Cell culture conditions were maintained for more than 14 days until dermal papilla cells covered approximately 40% of the area of the 35 mm culture dish, at which time subcultures were performed. To prepare the subcultures, the cell culture medium was removed from the 35 mm culture dish and the adherent cells were washed once with 2 ml of saline (at room temperature). 1 ml Trypsin-EDTA solution (0.1% trypsin and 0.02% EDTA) was then added to the 35 mm culture dish and left to stand for 4 minutes at 37° C. Dissociated dermal papilla cells were then recovered from the 35 mm dish, and seeded to a new 100 mm dish, and cultured in media under the same conditions as for the primary cell culture described above.
When the dermal papilla cells covered approximately 70-80% of the area of each 100 mm culture dish, the sub-confluent cells were subcultured as before. The process was repeated until sufficient cells were obtained to screen compounds of interest.
Once sufficient DP cells were obtained, the cells were harvested to provide a cell suspension. To harvest the DP cells, the cell culture medium was removed from the culture dish, and the adherent cells were washed with saline at room temperature. Trypsin-EDTA solution was then added under conditions described supra to dissociate the cells from the cell culture dish. Approximately 5×10^5 of the dissociated cells were resuspended in 500 ml of assay medium containing 445 ml of DMEM medium, 50 ml of 10% fetal calf serum and 5 ml of antibiotic.
Aliquots of the cell suspension were transferred to the wells of cell culture dishes, and a single monoterpenoid listed in Example 1 e.g., (−)-4-terpinen-4-ol, (+)-4-terpinen-4-ol. (±)-4-terpinen-4-ol, α-terpineol, nonanal, linalyl acetate or piperitone, is added to each well at a concentration of 0.005 (mg/ml) or 0.01 (mg/ml) or 0.05 (mg/ml) or 0.1 (mg/ml) or 0.5 (mg/ml). Cell suspensions were transferred to wells of a further cell culture dish to which minoxidil was then added at a concentration of 0.005 (mg/ml) or 0.01 (mg/ml) or 0.05 (mg/ml) or 0.1 (mg/ml) or 0.5 (mg/ml). A Wnt/β-catenin pathway activation agent e.g., Wnt3a or GSK-3 Inhibitor IX, as added to each of the cell cultures to produce an “activated cell culture”. Control cell cultures containing the same monoterpenoid compound or minoxodil, but lacking the Wnt/β-cinenin pathway activation agent, were processed in parallel. These activated and control cell cultures were divided further into duplicate cell culture samples either lacking FGF-5 or to which recombinant human FGF-5 (rhFGF-5; 1 μg/mL)) was added.
The cell culture samples were each cultured at 37° C. for 3 days under atmosphere containing less than 5% CO2. […]

In the case of `CC1=CCC(O)(C(C)C)CC1` (racemic) [(±)-4-Terpinen-4-ol, 1-Isopropyl-4-methyl-3-cyclohexen-1-ol], the “FGF-5-inhibitory activity (in words)” value [1] is reported as “potent FGF-5-inhibitory active substances”, the “relative ALP activity of DP cells treated FGF-5” value (“relative ALP activity” below) [2] is reported as “increased relative ALP activity” and the “FGF-5-inhibitory activity ranked from most active to least active by DP-ALP assay” value (from here on “FGF-5-inhibitory activity ranked”) [2] is reported as “Piperitone>(−)-terpinen-4-ol>(±)-Terpinen-4β-Terpineol> (+)-Terpinen-4-ol > Linalyl Acetate”.

For `CC1=CC[C@](O)(C(C)C)CC1` [(+)-4-Terpinen-4-ol, (1S)-1-Isopropyl-4-methyl-3-cyclohexen-1-ol], the “Suppression of FGF-5-dependent cell proliferation and viability” value (shortened to “Suppression”) [1] was “Suppression of FGF-5-dependent cell proliferation and viability was observed”, the “FGF-5-inhibitory activity (in words)” value [1] was “potent FGF-5-inhibitory active substances” and the “FGF-5 Specificity IL-1/FGF-5” value [1] was 9.1>. The “relative ALP activity” value [2] was “increased relative ALP activity” and the “FGF-5-inhibitory activity ranked” value [2] was “Piperitone>(−)-terpinen-4-ol>(±)-Terpinen-4β-Terpineol> (+)-Terpinen-4-ol > Linalyl Acetate”.

In the case of `CC1=CC[C@@](O)(C(C)C)CC1` [(−)-4-Terpinen-4-ol, (R)-1-Isopropyl-4-methyl-3-cyclohexen-1-ol], the “Suppression” value [1] is reported as “Suppression of FGF-5-dependent cell proliferation and viability was observed”, the “FGF-5-inhibitory activity (in words)” value [1] is reported as “potent FGF-5-inhibitory active substances” and the “FGF-5-inhibitory activity (in words)” value ([1]; listed as (−)-terpinen-4-ol) is reported as “high FGF-5 inhibitory activity; also recorded: higher FGF-5 inhibitory activity than (+)-terpinen-4-ol”. For the same molecule, the “FGF-5 Specificity IL-1/FGF-5” value [1] was 2>, the “relative ALP activity” value [2] was “high alkaline phosphatase activity; also recorded: higher alkaline phosphatase activity in dermal papillae than a racemic mixture of terpinen-4-al or (+)-Terpinen-4-ol; also recorded: increased relative ALP activity” and the “FGF-5-inhibitory activity ranked” value [2] was “Piperitone>(−)-terpinen-4-ol>(±)-Terpinen-4β-Terpineol> (+)-Terpinen-4-ol > Linalyl Acetate”.

`CC(=O)OC/C=C(\C)CCC=C(C)C` [Geranyl acetate, (2E)-3,7-Dimethyl-2,6-octadien-1-yl acetate] was tested, and the “Suppression” value [1] was “Suppression of FGF-5-dependent cell proliferation and viability was observed” and the “FGF-5 Specificity IL-1/FGF-5” value [1] was 8 (BR).

In the case of `C=CC(C)(O)CCC=C(C)C` (stereo not drawn) [Linalool, 3,7-Dimethyl-1,6-octadien-3-ol], the “Suppression” value [1] is reported as “Suppression of FGF-5-dependent cell proliferation and viability was observed” and the “FGF-5 Specificity IL-1/FGF-5” value [1] is reported as 30> (BR).

With `C=CC(C)(CCC=C(C)C)OC(C)=O` (stereo not drawn) [Linalyl acetate, 3,7-Dimethyl-1,6-octadien-3-yl acetate] the “Suppression” value [1] was “Suppression of FGF-5-dependent cell proliferation and viability was observed”, the “FGF-5-inhibitory activity (in words)” value [1] was “potent FGF-5-inhibitory active substances” and the “FGF-5-inhibitory activity ranked” value [2] was “Piperitone>(−)-terpinen-4-ol>(±)-Terpinen-4β-Terpineol> (+)-Terpinen-4-ol > Linalyl Acetate”.

In the case of `CCCCCCCCC=O` [Nonanal, reference compound], the “FGF-5-inhibitory activity (in words)” value [1] is reported as “potent FGF-5-inhibitory active substances” and the “FGF-5 Specificity IL-1/FGF-5” value [1] is reported as 9.

For `C=C(C)C1CC=C(C)C(O)C1` (stereo not drawn) [l-Carveol, 2-Methyl-5-(1-methylethenyl)-2-cyclohexen-1-ol], the “Suppression” value [1] was “Suppression of FGF-5-dependent cell proliferation and viability was observed” and the “FGF-5 Specificity IL-1/FGF-5” value [1] was 2.

In the case of `CC1=CCC(C(C)(C)O)CC1` (stereo not drawn) [α-Terpineol, 2-(4-Methyl-3-cyclohexen-1-yl)-2-propanol], the “Suppression” value [1] is reported as “Suppression of FGF-5-dependent cell proliferation and viability was observed”, the “FGF-5-inhibitory activity (in words)” value [1] is reported as “potent FGF-5-inhibitory active substances” and the “FGF-5 Specificity IL-1/FGF-5” value [1] is reported as 5>. The “relative ALP activity” value [2] was “increased relative ALP activity” and the “FGF-5-inhibitory activity ranked” value [2] was “Piperitone>(−)-terpinen-4-ol>(±)-Terpinen-4β-Terpineol> (+)-Terpinen-4-ol > Linalyl Acetate”.

Source: patent publication US20160374979A1, “Method of Treatment of Alopecia with Monoterpenoids” (CELLMID LIMITED, priority 2013, published 2016)
